The nature of experiment [1]: Cytotoxicity against human NCI60 cells after 2 days by XTT assay. The following applies: NCI60, 48 h. The experiment is classed as functional.
The next experiment has as its system L1210. The experiment is described as follows: Cytotoxicity against mouse L1210 cells after 24 hrs. To be noted: L1210, 24 h. The experiment is classed as functional, cell-based.

With `COc1ccc(C(=O)/C=C/c2ccc(O)c(O)c2)c(O)c1` [CALYTHROPSIN], in experiment [1], the GI50 (usually the concentration that inhibits growth by half) was determined as 0.66 µM and the TGI (in general, the concentration giving total growth inhibition) amounted to 19.7 µM. In experiment [1] (read-out: LC50 (the source's name)), the CC50 is more than 50 µM. Further, in the experiment on L1210, the midpoint of inhibition, the IC50, lay at 7 µM.

(Values after ChEMBL document CHEMBL1147381, “Two new cytotoxic chalcones from Calythropsis aurea” (J Nat Prod, 1993).)
